ChEMBL document CHEMBL1201862, “PubChem BioAssay data set” (2004)
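The compound was tested at five concentrations on cells cultured in 96-well plates, with a 48-hour exposure period. GI50: concentration for 50% inhibition of growth.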 Activity calls are given as the source filed them. No stated cut-off is given here; in the data, active = GI50 up to about 1.1 µM and inactive = higher.

Key:
Experiment in all cases: growth of human tumour cells (NCI), 48 h
SW-620 = system: SW-620
SK-MEL-28 = system: SK-MEL-28
MOLT-4 = system: MOLT-4
A549 = system: A549
SK-MEL-2 = system: SK-MEL-2
UACC-62 = system: UACC-62
COLO 205 = system: COLO 205
RPMI-8226 = system: RPMI-8226
OVCAR-3 = system: OVCAR-3
SK-OV-3 = system: SK-OV-3
OVCAR-5 = system: OVCAR-5
M14 = system: M14
CAKI-1 = system: CAKI-1
HOP-92 = system: HOP-92
ACHN = system: ACHN

Row | SMILES | GI50 (SW-620) | GI50 (SK-MEL-28) | GI50 (MOLT-4) | GI50 (A549) | GI50 (SK-MEL-2) | GI50 (UACC-62) | GI50 (COLO 205) | GI50 (RPMI-8226) | GI50 (OVCAR-3) | GI50 (SK-OV-3) | GI50 (OVCAR-5) | GI50 (M14) | GI50 (CAKI-1) | GI50 (HOP-92) | GI50 (ACHN)
1 | COc1ccccc1NC(=O)C1=C(C)NC(C)=C(C(=O)Nc2ccccc2OC)C1c1cccc2c1OCO2 | > 100 µM (inactive) | > 100 µM (inactive) | 20.7 µM (inactive) | 62.7 µM (inactive) | 48.2 µM (inactive) | > 100 µM (inactive) | > 100 µM (inactive) | 33 µM (inactive) | > 100 µM (inactive) | > 100 µM (inactive) | > 100 µM (inactive) | > 100 µM (inactive) | > 100 µM (inactive) | > 100 µM (inactive) | 58.9 µM (inactive)
2 | COc1ccc2c3c([nH]c(=O)c2c1C(=O)O)-c1ccccc1CC3 | > 100 µM (inactive) | > 100 µM (inactive) | > 100 µM (inactive) | > 100 µM (inactive) | > 100 µM (inactive) |  | > 100 µM (inactive) | > 100 µM (inactive) | > 100 µM (inactive) | > 100 µM (inactive) | > 100 µM (inactive) | > 100 µM (inactive) | > 100 µM (inactive) | > 100 µM (inactive) | > 100 µM (inactive)
3 | CCC1(CN(C)C)CC/C(=C\c2ccc(OC)cc2)C1=O (stereo not given) | > 100 µM (inactive) | > 100 µM (inactive) | 3.14 µM (inactive) | > 100 µM (inactive) | > 100 µM (inactive) | > 100 µM (inactive) | 80.7 µM (inactive) | 17.4 µM (inactive) | > 100 µM (inactive) |  | > 100 µM (inactive) | > 100 µM (inactive) | > 100 µM (inactive) | > 100 µM (inactive) | > 100 µM (inactive)
4 | CC1=Nc2c(O)nc(S)nc2NC(c2ccc(Cl)c(Cl)c2)C1 (stereo not given) | 23.5 µM (inactive) | 18.3 µM (inactive) | > 100 µM (inactive) | 21.1 µM (inactive) | > 100 µM (inactive) | 29.8 µM (inactive) | 18 µM (inactive) | > 100 µM (inactive) | 17.5 µM (inactive) | 32.1 µM (inactive) | > 100 µM (inactive) | 16.9 µM (inactive) | 30.3 µM (inactive) | > 93.1 µM (inactive) | > 65.2 µM (inactive)
5 | CN(C)C=C1C(Cl)=C(C=O)CC(C=O)=C1Cl | 1.56 µM (inactive) | 6.59 µM (inactive) | 2.54 µM (inactive) | 86.9 µM (inactive) | 17.6 µM (inactive) | 15.1 µM (inactive) | 15.6 µM (inactive) | 2.39 µM (inactive) | 13.5 µM (inactive) | 29.4 µM (inactive) | 15.9 µM (inactive) | 12.2 µM (inactive) | 11.3 µM (inactive) | 4.2 µM (inactive) | 12.9 µM (inactive)
6 | COC(=O)/C(=N/O)C(C(=O)C=C(C)C)C(=O)C(=O)Nc1nc2ccc([N+](=O)[O-])cc2s1 (stereo not given) | 33.8 µM (inactive) | 58.7 µM (inactive) | 23.9 µM (inactive) | 30.8 µM (inactive) | 25.8 µM (inactive) | 32.6 µM (inactive) | 41.6 µM (inactive) | 27.9 µM (inactive) | 21.5 µM (inactive) | 24.8 µM (inactive) | 37.7 µM (inactive) | 54.7 µM (inactive) | 24.2 µM (inactive) | 13.1 µM (inactive) | 24.4 µM (inactive)
7 | C[n+]1cn(CC(=O)c2ccccc2)c(C(N)=O)c1N | 11 µM (inactive) | > 100 µM (inactive) | > 100 µM (inactive) | > 100 µM (inactive) | > 100 µM (inactive) | > 100 µM (inactive) | 41.4 µM (inactive) | 45.1 µM (inactive) | > 100 µM (inactive) | > 100 µM (inactive) | > 100 µM (inactive) | > 100 µM (inactive) | > 100 µM (inactive) | > 100 µM (inactive) | > 100 µM (inactive)
8 | CCN(CC)c1ccc(/N=N/c2ccc(-c3nc4cccnc4o3)cc2)cc1 | > 100 µM (inactive) | > 100 µM (inactive) | > 100 µM (inactive) | > 100 µM (inactive) | > 100 µM (inactive) | > 100 µM (inactive) | > 100 µM (inactive) | > 100 µM (inactive) | > 100 µM (inactive) |  | > 100 µM (inactive) | > 100 µM (inactive) | > 100 µM (inactive) | > 100 µM (inactive) | > 100 µM (inactive)
9 | O/N=C1\C(=C\c2ccc3c(c2)OCCO3)CCCC1C(NO)c1ccc2c(c1)OCCO2 (stereo not given) | 32.2 µM (inactive) | 18.5 µM (inactive) | 10.1 µM (inactive) | 25.2 µM (inactive) |  | 16.5 µM (inactive) | 32.4 µM (inactive) | 16.3 µM (inactive) | 18.3 µM (inactive) | 49.9 µM (inactive) | 32.6 µM (inactive) | 17.7 µM (inactive) | 32.4 µM (inactive) | 23.3 µM (inactive) | 34.5 µM (inactive)
10 | C[C@@H](C1CCC2C3C(=CC(=O)[C@@]21C)[C@H](C)[C@]1(CCC(=O)O1)C1OC31)[C@H]1C[C@]2(C)O[C@@](C)(O1)OC2(C)C (stereo not given in full) | > 100 µM (inactive) | > 100 µM (inactive) | > 100 µM (inactive) | > 100 µM (inactive) |  | > 100 µM (inactive) | > 100 µM (inactive) | > 100 µM (inactive) |  | > 100 µM (inactive) |  | > 100 µM (inactive) | > 100 µM (inactive) | > 100 µM (inactive) | > 100 µM (inactive)
11 | CN(C)C(=S)/N=c1\ss/c(=N\C(=S)N(C)C)n1-c1cccc(Cl)c1 | > 100 µM (inactive) | > 100 µM (inactive) | > 100 µM (inactive) | > 100 µM (inactive) | > 100 µM (inactive) | > 100 µM (inactive) | > 100 µM (inactive) | > 100 µM (inactive) | > 100 µM (inactive) | > 10 µM (inactive) | > 100 µM (inactive) | > 100 µM (inactive) | > 100 µM (inactive) |  | > 100 µM (inactive)
12 | CC(CC(=O)Nc1ccc(NC(=O)CC(C)/N=N\C(N)=S)cc1)/N=N\C(N)=S (stereo not given) |  | > 100 µM (inactive) | > 100 µM (inactive) | > 100 µM (inactive) | > 100 µM (inactive) | > 100 µM (inactive) | > 100 µM (inactive) | > 100 µM (inactive) | > 100 µM (inactive) |  | > 100 µM (inactive) | > 100 µM (inactive) | > 100 µM (inactive) | > 100 µM (inactive) | > 100 µM (inactive)
13 | O=C1Nc2cccc3ncn(c23)C2=C1CCCC2 | > 100 µM (inactive) | > 100 µM (inactive) | > 100 µM (inactive) | > 100 µM (inactive) | > 100 µM (inactive) | > 100 µM (inactive) | > 100 µM (inactive) | > 100 µM (inactive) |  | 96.2 µM (inactive) | > 100 µM (inactive) |  |  |  | > 100 µM (inactive)
14 | OCC1CC2CC1C1(C2)OCCO1 (stereo not given) | > 100 µM (inactive) | > 100 µM (inactive) | > 100 µM (inactive) | > 100 µM (inactive) | > 100 µM (inactive) | > 100 µM (inactive) | > 100 µM (inactive) | > 100 µM (inactive) | > 100 µM (inactive) | > 100 µM (inactive) | > 100 µM (inactive) | > 100 µM (inactive) | > 100 µM (inactive) | > 100 µM (inactive) | > 100 µM (inactive)
15 | CCOC(=O)C1=C(Nc2ccc(Cl)cc2Cl)OCC1=O | > 100 µM (inactive) | > 100 µM (inactive) | > 100 µM (inactive) | > 100 µM (inactive) | > 100 µM (inactive) | > 100 µM (inactive) | > 100 µM (inactive) | > 100 µM (inactive) | > 100 µM (inactive) | > 100 µM (inactive) | > 100 µM (inactive) | > 100 µM (inactive) | > 100 µM (inactive) | > 100 µM (inactive) | > 100 µM (inactive)
16 | CC1=CC2C(C=C1)S(=O)(=O)N1CC21c1ccccc1 (stereo not given) | > 100 µM (inactive) | > 100 µM (inactive) |  | > 100 µM (inactive) | > 100 µM (inactive) | 64.6 µM (inactive) | > 100 µM (inactive) | > 100 µM (inactive) | > 100 µM (inactive) | > 100 µM (inactive) | > 100 µM (inactive) | > 100 µM (inactive) | 44.2 µM (inactive) | 15.1 µM (inactive) | > 100 µM (inactive)
17 | CC(C)c1ccc(/C=C/c2cc(C(=O)NNC(=O)NC3CCCCC3)nc(S)n2)cc1 | > 100 µM (inactive) | > 100 µM (inactive) |  | > 100 µM (inactive) |  | > 100 µM (inactive) | > 100 µM (inactive) | > 100 µM (inactive) | > 100 µM (inactive) | > 100 µM (inactive) | > 100 µM (inactive) | > 100 µM (inactive) | > 100 µM (inactive) | > 100 µM (inactive) | > 100 µM (inactive)
18 | C/N=C(\S)N/N=C/C(C)=N/N/C(S)=N/C | > 100 µM (inactive) | > 100 µM (inactive) | 0.323 µM (active) | > 100 µM (inactive) | > 100 µM (inactive) | > 100 µM (inactive) | > 100 µM (inactive) | 0.583 µM (active) | > 100 µM (inactive) | > 100 µM (inactive) | 0.843 µM (active) | > 100 µM (inactive) |  |  | > 100 µM (inactive)
19 | Cn1cc2ccccc2c1-c1nc(F)nc(F)n1 | > 100 µM (inactive) | > 100 µM (inactive) | 55 µM (inactive) | > 100 µM (inactive) | > 100 µM (inactive) |  | > 100 µM (inactive) | 33 µM (inactive) | > 100 µM (inactive) | > 100 µM (inactive) | > 100 µM (inactive) | > 100 µM (inactive) | > 100 µM (inactive) | > 100 µM (inactive) | > 100 µM (inactive)
